In the NIST ThermoML archive (doi:10.1021/je5000296):
± gives the expanded uncertainty stated by the source.

Settings: Liquid, Ebulliometric method (Recirculating still)

Row | SMILES | vapor or sublimation pressure (390.48 K) | vapor or sublimation pressure (399.15 K)
1 | CCCCO [butan-1-ol] | 101.3 ± 0.91 kPa | –
2 | CCCCOC(C)=O [butyl ethanoate] | – | 101.3 ± 0.91 kPa
